Experimental data reported in ChEMBL document CHEMBL1240489, “Discovery of N-{1-[3-(3-oxo-2,3-dihydrobenzo[1,4]oxazin-4-yl)propyl]piperidin-4-yl}-2-phenylacetamide (Lu AE51090): an allosteric muscarinic M1 receptor agonist with unprecedented selectivity and procognitive potential” (J Med Chem, 2010).
Calls of active or inactive are those of the source. The rule behind the calls is not given here.

Key:
[1] = molecular target: Mitogen-activated protein kinase 14 (Homo sapiens, UniProt Q16539); assay: Binding affinity to p38alpha by enzyme assay
[2] = molecular target: T1, Muscarinic acetylcholine receptor M5 (Homo sapiens, UniProt P08912); assay: Binding affinity to human muscarinic M5 receptor by radioligand displacement assay
T1 sequence (P08912 whole entry): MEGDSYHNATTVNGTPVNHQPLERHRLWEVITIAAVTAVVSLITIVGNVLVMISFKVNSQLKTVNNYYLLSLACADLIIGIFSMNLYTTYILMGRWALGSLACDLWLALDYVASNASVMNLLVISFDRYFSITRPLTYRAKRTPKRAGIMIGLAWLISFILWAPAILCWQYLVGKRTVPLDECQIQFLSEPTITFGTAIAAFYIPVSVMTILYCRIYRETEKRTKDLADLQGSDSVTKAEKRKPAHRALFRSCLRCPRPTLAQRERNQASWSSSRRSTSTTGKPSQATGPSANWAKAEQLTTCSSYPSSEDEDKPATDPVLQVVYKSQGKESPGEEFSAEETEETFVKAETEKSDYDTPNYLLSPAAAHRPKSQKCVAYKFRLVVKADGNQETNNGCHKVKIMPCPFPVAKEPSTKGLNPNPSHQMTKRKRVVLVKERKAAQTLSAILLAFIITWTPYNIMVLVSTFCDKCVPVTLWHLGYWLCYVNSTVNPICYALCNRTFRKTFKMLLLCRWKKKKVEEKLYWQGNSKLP

Acetylcholinesterase = Acetylcholinesterase (Homo sapiens, UniProt P22303); assay: Binding affinity to human acetylcholine esterase by radioligand displacement assay
Chain of Acetylcholinesterase (P22303 whole entry): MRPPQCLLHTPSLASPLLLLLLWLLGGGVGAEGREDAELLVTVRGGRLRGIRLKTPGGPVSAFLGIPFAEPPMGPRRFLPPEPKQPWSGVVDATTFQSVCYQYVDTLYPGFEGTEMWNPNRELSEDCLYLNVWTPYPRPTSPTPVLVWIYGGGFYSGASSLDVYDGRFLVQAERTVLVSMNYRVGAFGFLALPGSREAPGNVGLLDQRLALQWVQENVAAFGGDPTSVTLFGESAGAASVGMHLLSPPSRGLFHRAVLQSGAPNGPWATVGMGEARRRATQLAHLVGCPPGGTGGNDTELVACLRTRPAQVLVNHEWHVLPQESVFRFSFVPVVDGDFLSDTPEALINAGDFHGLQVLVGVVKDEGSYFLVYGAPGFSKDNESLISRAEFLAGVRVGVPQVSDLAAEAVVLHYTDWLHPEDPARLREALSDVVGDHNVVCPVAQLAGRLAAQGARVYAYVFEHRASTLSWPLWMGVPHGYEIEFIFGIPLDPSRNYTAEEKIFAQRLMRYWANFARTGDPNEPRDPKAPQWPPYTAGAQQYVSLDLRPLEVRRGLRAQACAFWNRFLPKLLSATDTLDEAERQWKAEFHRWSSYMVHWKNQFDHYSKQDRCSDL

[3] = molecular target: Gastrin/cholecystokinin type B receptor (Homo sapiens, UniProt P32239); assay: Binding affinity to human CCK2 receptor by radioligand displacement assay
[4] = molecular target: Alpha-1A adrenergic receptor (Homo sapiens, UniProt P35348); assay: Binding affinity to human adrenergic alpha1A receptor by radioligand displacement assay
Chain of Alpha-1A adrenergic receptor (P35348 whole entry): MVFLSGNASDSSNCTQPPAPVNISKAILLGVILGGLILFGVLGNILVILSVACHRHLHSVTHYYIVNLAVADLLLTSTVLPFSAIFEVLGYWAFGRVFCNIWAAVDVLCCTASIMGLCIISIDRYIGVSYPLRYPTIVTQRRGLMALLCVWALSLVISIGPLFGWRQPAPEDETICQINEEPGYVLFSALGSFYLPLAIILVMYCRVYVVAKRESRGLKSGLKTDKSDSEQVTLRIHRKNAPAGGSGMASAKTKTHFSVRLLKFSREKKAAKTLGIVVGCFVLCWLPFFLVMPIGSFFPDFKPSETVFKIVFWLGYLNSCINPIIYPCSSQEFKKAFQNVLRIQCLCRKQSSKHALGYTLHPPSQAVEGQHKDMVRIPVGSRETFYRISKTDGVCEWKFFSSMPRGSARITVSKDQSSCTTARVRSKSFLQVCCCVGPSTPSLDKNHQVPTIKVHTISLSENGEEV

[5] = molecular target: T1, Muscarinic acetylcholine receptor M5; assay: biochemical
Description: Displacement of [3H]-4-DAMP from human muscarinic M5 receptor expressed in BHK-21 cells

[6] = molecular target: High affinity choline transporter 1 (Homo sapiens, UniProt Q9GZV3); assay: Binding affinity to human choline transporter (CHT1) by radioligand displacement assay
Substance-P receptor = Substance-P receptor (Homo sapiens, UniProt P25103); assay: Binding affinity to human NK1 receptor by radioligand displacement assay
Chain of Substance-P receptor (P25103 whole entry): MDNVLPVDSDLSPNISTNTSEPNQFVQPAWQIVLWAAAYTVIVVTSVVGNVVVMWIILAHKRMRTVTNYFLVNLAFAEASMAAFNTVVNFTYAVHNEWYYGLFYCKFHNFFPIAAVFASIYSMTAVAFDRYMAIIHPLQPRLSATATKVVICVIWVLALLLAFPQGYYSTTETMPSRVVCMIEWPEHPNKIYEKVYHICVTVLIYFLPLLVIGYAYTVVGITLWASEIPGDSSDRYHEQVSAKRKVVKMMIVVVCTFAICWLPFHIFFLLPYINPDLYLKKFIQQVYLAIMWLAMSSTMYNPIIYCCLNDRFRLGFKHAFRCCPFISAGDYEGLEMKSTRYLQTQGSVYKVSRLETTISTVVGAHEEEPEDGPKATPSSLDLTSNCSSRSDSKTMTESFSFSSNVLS

Phosphodiesterase 4 = Phosphodiesterase 4 (Homo sapiens, UniProt P27815+Q08499+Q07343+Q08493); assay: Binding affinity to human PDE4 rolipram binding site by radioligand displacement assay; type: protein assay
Mus musculus = assay: Reversal of 60 seconds delay-induced memory decay in C57Bl/6J mouse assessed as positive alteration at 0.31 to […], sc for 1 week by Y-maze test; type: functional, organism-based
[7] = molecular target: T2, Muscarinic acetylcholine receptor M2 (Homo sapiens, UniProt P08172); assay: Displacement of [3H]-AFDX-384 from human muscarinic M2 receptor expressed in CHO-K1 cells; type: cell-based
T2 sequence (P08172 whole entry): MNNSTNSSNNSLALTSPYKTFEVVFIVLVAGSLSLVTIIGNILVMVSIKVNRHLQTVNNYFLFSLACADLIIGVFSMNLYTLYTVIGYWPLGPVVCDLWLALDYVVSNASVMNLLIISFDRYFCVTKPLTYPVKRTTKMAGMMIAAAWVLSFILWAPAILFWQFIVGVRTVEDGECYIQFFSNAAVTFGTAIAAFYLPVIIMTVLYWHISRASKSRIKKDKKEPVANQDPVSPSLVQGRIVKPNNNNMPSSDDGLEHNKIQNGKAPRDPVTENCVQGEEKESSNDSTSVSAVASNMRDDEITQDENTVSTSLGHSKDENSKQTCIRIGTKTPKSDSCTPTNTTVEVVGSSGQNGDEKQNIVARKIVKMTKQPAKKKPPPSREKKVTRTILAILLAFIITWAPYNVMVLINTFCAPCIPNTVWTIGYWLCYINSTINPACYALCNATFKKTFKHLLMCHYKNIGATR

Histamine H3 receptor = Histamine H3 receptor (Homo sapiens, UniProt Q9Y5N1); assay: Binding affinity to human histamine H3 receptor by radioligand displacement assay
Chain of Histamine H3 receptor (Q9Y5N1 whole entry): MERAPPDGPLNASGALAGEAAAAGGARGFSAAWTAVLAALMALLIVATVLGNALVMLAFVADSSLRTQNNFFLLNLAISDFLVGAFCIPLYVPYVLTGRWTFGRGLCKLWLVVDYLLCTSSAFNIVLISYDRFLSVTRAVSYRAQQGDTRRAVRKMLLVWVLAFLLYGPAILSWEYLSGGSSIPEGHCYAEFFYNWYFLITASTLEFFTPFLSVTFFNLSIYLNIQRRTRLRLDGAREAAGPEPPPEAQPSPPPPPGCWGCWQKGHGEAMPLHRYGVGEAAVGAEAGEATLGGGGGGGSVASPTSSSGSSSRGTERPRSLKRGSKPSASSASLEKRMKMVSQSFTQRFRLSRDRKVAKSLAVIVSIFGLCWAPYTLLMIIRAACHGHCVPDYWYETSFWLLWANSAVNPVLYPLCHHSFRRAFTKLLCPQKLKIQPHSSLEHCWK

[8] = molecular target: T3, Muscarinic acetylcholine receptor M1 (Homo sapiens) (UniProt P11229); assay: Agonist activity at human muscarinic M1 receptor expressed in CHO-K1 cells assessed as increase of acetylcholine-induced calcium flux by FLIPR assay in presence of atropine; type: functional, cell-based
T3 sequence (whole entry): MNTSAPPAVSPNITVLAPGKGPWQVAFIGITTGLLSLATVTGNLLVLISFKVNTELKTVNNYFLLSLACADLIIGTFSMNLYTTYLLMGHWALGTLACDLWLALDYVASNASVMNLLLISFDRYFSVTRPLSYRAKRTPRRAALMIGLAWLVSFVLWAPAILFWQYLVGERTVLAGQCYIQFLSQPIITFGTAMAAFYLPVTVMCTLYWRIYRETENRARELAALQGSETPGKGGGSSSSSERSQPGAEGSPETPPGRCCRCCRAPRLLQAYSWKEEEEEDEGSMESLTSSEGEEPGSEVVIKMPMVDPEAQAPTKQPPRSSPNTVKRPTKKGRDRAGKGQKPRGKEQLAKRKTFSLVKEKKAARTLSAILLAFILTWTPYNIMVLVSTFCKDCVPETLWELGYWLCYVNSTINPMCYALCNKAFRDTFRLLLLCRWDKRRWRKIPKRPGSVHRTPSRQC

Substance-K receptor = Substance-K receptor (Homo sapiens, UniProt P21452); assay: Binding affinity to human NK2 receptor by radioligand displacement assay
Chain of Substance-K receptor (P21452 whole entry): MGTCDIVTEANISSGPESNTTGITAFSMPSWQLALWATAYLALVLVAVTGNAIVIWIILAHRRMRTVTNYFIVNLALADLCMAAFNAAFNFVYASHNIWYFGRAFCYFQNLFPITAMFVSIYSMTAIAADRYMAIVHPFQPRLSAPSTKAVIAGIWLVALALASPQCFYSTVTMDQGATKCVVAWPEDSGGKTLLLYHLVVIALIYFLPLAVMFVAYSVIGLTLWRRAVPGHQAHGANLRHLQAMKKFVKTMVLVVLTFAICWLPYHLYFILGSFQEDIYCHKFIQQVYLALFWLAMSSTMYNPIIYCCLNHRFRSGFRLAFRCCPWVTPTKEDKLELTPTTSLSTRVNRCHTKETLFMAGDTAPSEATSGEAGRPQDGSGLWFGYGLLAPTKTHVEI

[9] = Binding affinity to PDE3 by enzyme assay
Hepatocyte = assay: Intrinsic clearance in human hepatocytes at 1 uM after up to 120 mins by LC/MS-MS analysis; type: ADME, cell-based, Liver; conditions: 2 h
[10] = molecular target: 5-hydroxytryptamine receptor 7 (Homo sapiens, UniProt P34969); assay: Binding affinity to human 5-HT7 receptor by radioligand displacement assay
[11] = molecular target: Alpha-2A adrenergic receptor (Homo sapiens, UniProt P08913); assay: Binding affinity to human adrenergic alpha2A receptor by radioligand displacement assay
Chain of Alpha-2A adrenergic receptor (P08913 whole entry): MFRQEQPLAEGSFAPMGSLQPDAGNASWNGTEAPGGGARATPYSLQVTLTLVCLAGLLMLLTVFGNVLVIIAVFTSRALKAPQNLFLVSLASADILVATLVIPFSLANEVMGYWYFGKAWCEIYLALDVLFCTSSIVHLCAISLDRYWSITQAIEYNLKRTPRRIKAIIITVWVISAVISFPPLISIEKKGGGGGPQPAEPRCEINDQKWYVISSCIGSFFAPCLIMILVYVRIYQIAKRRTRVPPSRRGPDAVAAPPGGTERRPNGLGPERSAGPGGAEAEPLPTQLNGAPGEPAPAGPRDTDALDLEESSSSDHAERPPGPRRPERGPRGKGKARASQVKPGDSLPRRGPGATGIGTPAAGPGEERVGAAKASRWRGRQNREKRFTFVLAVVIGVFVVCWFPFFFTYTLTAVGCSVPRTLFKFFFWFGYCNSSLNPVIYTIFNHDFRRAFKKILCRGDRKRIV

[12] = molecular target: 5-hydroxytryptamine receptor 2C (Homo sapiens, UniProt P28335); assay: Binding affinity to human 5HT2C receptor agonist site by radioligand displacement assay
Chain of 5-hydroxytryptamine receptor 2C (P28335 whole entry): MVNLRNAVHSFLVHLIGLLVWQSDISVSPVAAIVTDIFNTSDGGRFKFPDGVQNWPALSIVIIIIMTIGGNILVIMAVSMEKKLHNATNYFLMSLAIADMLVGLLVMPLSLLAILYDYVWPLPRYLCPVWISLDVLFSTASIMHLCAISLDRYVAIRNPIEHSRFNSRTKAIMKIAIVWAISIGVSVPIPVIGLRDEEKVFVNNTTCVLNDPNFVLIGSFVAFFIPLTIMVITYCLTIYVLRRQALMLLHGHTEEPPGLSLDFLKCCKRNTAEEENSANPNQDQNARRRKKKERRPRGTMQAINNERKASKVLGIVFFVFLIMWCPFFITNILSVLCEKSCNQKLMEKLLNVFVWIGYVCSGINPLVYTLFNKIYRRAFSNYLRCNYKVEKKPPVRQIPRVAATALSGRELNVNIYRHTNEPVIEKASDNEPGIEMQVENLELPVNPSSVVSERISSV

[13] = molecular target: Tyrosine-protein kinase Lyn (Homo sapiens, UniProt P07948); assay: Binding affinity to Lyn by enzyme assay
Chain of Tyrosine-protein kinase Lyn (P07948 whole entry): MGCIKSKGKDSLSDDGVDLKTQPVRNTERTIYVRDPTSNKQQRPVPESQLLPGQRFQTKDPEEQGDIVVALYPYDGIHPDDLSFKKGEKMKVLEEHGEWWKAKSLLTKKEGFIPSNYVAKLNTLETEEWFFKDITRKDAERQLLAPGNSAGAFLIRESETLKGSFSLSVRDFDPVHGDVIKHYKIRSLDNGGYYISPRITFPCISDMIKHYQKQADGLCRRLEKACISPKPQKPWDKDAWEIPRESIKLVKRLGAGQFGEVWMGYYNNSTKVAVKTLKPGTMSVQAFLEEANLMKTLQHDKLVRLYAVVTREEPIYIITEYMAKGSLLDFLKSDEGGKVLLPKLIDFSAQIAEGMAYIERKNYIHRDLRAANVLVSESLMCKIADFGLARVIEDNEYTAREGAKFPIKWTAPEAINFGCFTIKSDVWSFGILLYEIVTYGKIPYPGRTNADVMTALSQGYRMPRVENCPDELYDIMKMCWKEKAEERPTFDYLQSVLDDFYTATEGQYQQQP

Melanocortin receptor 4 = Melanocortin receptor 4 (Homo sapiens, UniProt P32245); assay: Binding affinity to human MC4 receptor by radioligand displacement assay
Chain of Melanocortin receptor 4 (P32245 whole entry): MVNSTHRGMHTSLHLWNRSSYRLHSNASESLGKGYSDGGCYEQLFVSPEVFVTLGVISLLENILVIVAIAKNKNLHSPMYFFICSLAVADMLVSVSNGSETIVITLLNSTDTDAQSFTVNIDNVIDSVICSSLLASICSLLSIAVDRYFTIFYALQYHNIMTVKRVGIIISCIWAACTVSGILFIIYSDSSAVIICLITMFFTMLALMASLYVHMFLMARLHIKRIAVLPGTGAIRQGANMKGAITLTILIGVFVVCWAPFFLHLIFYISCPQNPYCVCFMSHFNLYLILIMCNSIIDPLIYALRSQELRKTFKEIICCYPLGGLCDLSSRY

Rattus norvegicus = species on record: Rattus norvegicus; assay: Hepatic blood flow in rat; type: ADME, organism-based, Liver
Histamine H2 receptor = Histamine H2 receptor (Homo sapiens, UniProt P25021); assay: Binding affinity to human histamine H2 receptor by radioligand displacement assay
Chain of Histamine H2 receptor (P25021 whole entry): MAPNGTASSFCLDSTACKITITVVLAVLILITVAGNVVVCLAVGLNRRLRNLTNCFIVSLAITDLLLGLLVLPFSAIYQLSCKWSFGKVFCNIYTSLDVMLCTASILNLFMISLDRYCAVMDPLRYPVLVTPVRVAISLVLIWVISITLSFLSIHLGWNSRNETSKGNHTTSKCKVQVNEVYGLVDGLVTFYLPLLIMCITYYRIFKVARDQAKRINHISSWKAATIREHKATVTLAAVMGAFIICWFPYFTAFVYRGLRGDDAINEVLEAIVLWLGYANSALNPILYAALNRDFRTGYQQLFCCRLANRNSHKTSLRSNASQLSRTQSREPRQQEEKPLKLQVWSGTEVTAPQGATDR

Adenosine receptor A1 = Adenosine receptor A1 (Homo sapiens, UniProt P30542); assay: Binding affinity to human adenosine A1 receptor agonist site by radioligand displacement assay
[14] = molecular target: Kappa-type opioid receptor (Homo sapiens, UniProt P41145); assay: Binding affinity to kappa opioid receptor by radioligand displacement assay
Chain of Kappa-type opioid receptor (P41145 whole entry): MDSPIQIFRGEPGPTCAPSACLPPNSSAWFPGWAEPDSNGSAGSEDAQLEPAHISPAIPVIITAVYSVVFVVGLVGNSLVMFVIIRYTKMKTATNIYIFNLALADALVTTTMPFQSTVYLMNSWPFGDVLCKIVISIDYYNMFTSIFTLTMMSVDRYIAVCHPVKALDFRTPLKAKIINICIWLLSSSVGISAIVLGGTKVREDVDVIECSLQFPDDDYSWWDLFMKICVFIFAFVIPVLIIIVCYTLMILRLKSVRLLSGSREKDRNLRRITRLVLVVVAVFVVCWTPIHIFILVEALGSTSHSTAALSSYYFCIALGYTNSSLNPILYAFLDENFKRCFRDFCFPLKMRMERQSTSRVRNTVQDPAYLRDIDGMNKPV

O=C(Cc1ccccc1)NC1CCN(CCCN2C(=O)COc3ccccc32)CC1
Ki [1]: ≥ 1000 nM | Ki [2]: ≥ 1000 nM | Ki (Acetylcholinesterase): ≥ 1000 nM | Ki [3]: ≥ 1000 nM | Ki [4]: 260 nM | Ki [5]: 8900 nM | Ki [6]: ≥ 1000 nM | Ki (Substance-P receptor): ≥ 1000 nM | Ki (Phosphodiesterase 4): >= 1000 nM | Activity (Mus musculus): inactive | Ki [7]: 2200 nM | Ki (Histamine H3 receptor): ≥ 1000 nM | Activity [8]: inactive | Ki (Substance-K receptor): ≥ 1000 nM | Ki [9]: ≥ 1000 nM | CL (Hepatocyte): 3.4 L/min | Ki [10]: ≥ 1000 nM | Ki [11]: ≥ 1000 nM | Ki [12]: ≥ 1000 nM | Ki [13]: ≥ 1000 nM | Ki (Melanocortin receptor 4): ≥ 1000 nM | QH (Rattus norvegicus): 20 mL/min | Ki (Histamine H2 receptor): ≥ 1000 nM | Ki (Adenosine receptor A1): ≥ 1000 nM | Ki [14]: ≥ 1000 nM
